{
  "source": "patent US6444878B1",
  "about": "“Method of plant selection using glucosamine-6-phosphate deaminase” (Danisco A/S, priority 1997, dated 2002)",
  "key": {"[1]": {"tested_on": "natural plant cells", "details": "formed from milli-molar amounts of glucosamine; cited from earlier work"}, "[2]": {"tested_on": "guar cotyledonary explants transformed with nagB", "assay": "Selection of transgenic guar shoots on glucosamine selection medium, GUS histochemical assay", "format": "cell-based, Cyamopsis tetragonoloba", "method": "Transformation of guar cotyledonary explants was performed according to Joersbo and Okkels (PCT/DK95/00221) using Agrobacterium tumefaciens LBA4404 harbouring the plasmid shown in FIG. 10. Selection of transgenic shoots was accomplished using the above-mentioned selection medium with various concentrations of glucosamine, sucrose and Garnborg B5 salts. After four weeks the shoots were harvested and all explants were transferred to fresh selection medium (same composition) and after another four weeks of selection the last shoots were harvested. After harvest, the shoots were analysed for β-glucuronidase (GUS) activity using the histochemical assay (Jefferson et al, 1987, EMBO J 6: 3901-3907)."}, "[3]": {"tested_on": "non-transgenic guar cotyledons", "format": "cell-based", "details": "glucosamine 3.0 g/l", "method": "In order to establish the toxicity of glucosamine to guar explants, a dose-response curve with glucosamine concentrations ranging from 0 to 5.0 g/l was made using non-transgenic guar cotyledons as explants. The effect on shoot formation on the explants was used to determine the toxicity of glucosamine (FIG. 20).\nThe guar explants were obtained as follows. Guar seeds were sterilized in a 2.5% sodium hypochlorite solution at pH 7.0 added two drops of Tween 80 pr 100 ml solution. The seeds were stirred for 25 minutes in this solution and then washed five times with sterile water. Seeds were sown on germination medium (4.43 g/l MSMO (Sigma M6899), 20 g/l sucrose, 8.0 g/l agar, pH adjusted to 5.8 with KOH) and placed at 25° C. for 11-13 days at a 12 h/12 h day/night regime.\nThe cotyledons including about 2 mm of hypocotyl were excised from the seedlings and were used as explants for this experiment as well as for transformation experiments. The cotyledons were placed on selection medium containing various concentrations of glucosamine.\n0-5 g/l D-glucosamine, HCl (according to the experiment)\nAfter three weeks, the percentage of explants forming shoots on the various glucosamine containing media were determined and the results are given in FIG. 20.\nIn order to be able to find appropriate selection conditions, some factors affecting the toxicity of glucosamine were studied. Initially, sucrose was tested at various concentrations (5-40 g/l) in the selection medium. […] It is expected that other saccharides such glucose, fructose, maltose, mannose etc may also affect the effect of glucosamine.\nNext, the effect of the concentration of the Gamborg B5 salts in the selection medium was tested in the presence of glucosamine (3.0 g/l). We investigated the use of these salts with a view to decreasing the carbon content of the medium."}, "[4]": {"tested_on": "Solanum tuberosum cv Saturna explants", "format": "cell-based", "details": "for Number of transformed areas per explant / Number of transgenic shoots / Transformation frequency (number transgenic shoots/started explants) / Transformation frequency (%) (Number transgenic shoots/started explants): sucrose 7.5 g/l", "method": "The disarmed Agrobacterium tumefaciens strain LBA 4404, containing the helper vir plasmid pRAL4404 (Hoekema et al, 1983 Nature 303 pp 179-180), was cultured on YMB agar (K2HPO4.3H2O 660 mg l^−1, MgSO4 200 mg l^−1, NaCl 100 mg l^−1, mannitol 10 g l^−1, yeast extract 400 mg l^−1, 0.8% w/v agar, pH 7.0) containing 100 mg l^−1 rifampicin and 500 mg l^−1 streptomycin sulphate. Transformation with pVICTOR IV GNG E35S nagB IV2 or pVICTOR IV GNG rbc nagB IV2 or pVICTOR IV GNG E35 S nagB was accomplished using the freeze-thaw method of Holters et al (1978 Mol Gen Genet 163 181-187) and transformants were selected on YMB agar containing 100 mg l^−1 rifampicin and 500 mg l^−1 streptomycin, and 50 mg l^−1 gentamycin sulphate. Transformation with a control construct lacking the nagB gene was performed in the same manner.\nShoot cultures of Solanum tuberosum cv Saturna were maintained on LS agar containing Murashige Skoog basal salts (Sigma M6899) (Murashige and Skoog, 1965, Physiol Plant 15 473-497) with 2 μM silver thiosulphate, and nutrients and vitamins as described by Linsmaier and Skoog (1965 Physiol Plant 18 100-127). Cultures were maintained at 25° C. with a 16 h daily photoperiod. After approximately 40 days, subculturing was performed during and the shoots cut into mononodal segments of approximately 8 mm length.\nShoot cultures of approximately 40 days maturity (5-6 cm height) were cut into 8 mm internodal segments and/or leaves were cut off and wounded by making 24 small cuts over the midrib of the leaf. These were then placed into liquid LS-medium containing Agrobacterium tumefaciens transformed with pVICTOR IV GNG E35 S nagB IV2 or pVICTOR IV GNG rbc nagB IV2 or pVICTOR IV GNG E35S nagB (A660=0.5, pathlength 1 cm). Following incubation at room temperature for 30 minutes, the segments were dried by blotting on to sterile filter paper and transferred to LS agar (0.8% w/v containing 2 mg l^−1 2,4-D and 500 μg l^−1 trans-zeatin. The explants were covered with filter paper, moistened with LS medium, and covered with a cloth for three days at 25° C. Following this treatment, the segments can be washed with liquid LS medium containing 800 mg l^−1 carbenicillin, and then transferred on to LS agar (0.8% w/v) containing 1 mg l^−1 trans-zeatin, […] gibberellic acid (GA3), with sucrose (eg 7.5 g l^−1). This agar can optionally contain glucosamine (eg 2.5 g l^−1). The segments were sub-cultured to fresh substrate each […]. In 3 to 4 weeks, shoots develop from the segments and the formation of new shoots continued for 3-4 months.\nThe transgenic plants may be verified by performing a GUS assay on the cointroduced β-glucuronidase gene according to Hodal, L. et al. (Pl. Sci. (1992), 87: 115-122)."}, "[5]": {"tested_on": "glucosamine-6-phosphate deaminase encoded by nagB", "assay": "Conversion of GA6P to F6P by glucosamine-6-phosphate deaminase, allosteric effect", "format": "biochemical, E. coli", "details": "FIG. 3", "source_text": "One aspect of the selection method of the present invention provides an additional advantageous feature. […] This surprising finding is in accordance with studies done with E. coli (Calcagno, M, et al (1984) Biochim Biophys Acta 787: 165-173). Thus, should any glucosamine be metabolised to NAGA and in turn eventually to NAG6P then that NAG6P would ensure conversion of GA6P to F6P by the enzyme glucosamine-6-phosphate deaminase or at least aid the conversion step. This is an advantageous feature of the highly preferred selection method of the present invention."}, "[6]": {"details": "second table, glucosamine 1 g/l"}, "[7]": {"details": "second table, glucosamine 2.5 g/l"}, "[8]": {"details": "second table, glucosamine 5 g/l"}, "[9]": {"details": "second table, glucosamine 7.5 g/l"}, "[10]": {"details": "second table, glucosamine 10 g/l"}, "[11]": {"details": "glucosamine 2 g/l, NH4/NO3 1298 g/l"}, "[12]": {"details": "glucosamine 2.5 g/l, NH4/NO3 1189 g/l"}, "[13]": {"details": "glucosamine 3 g/l, NH4/NO3 1093 g/l"}},
  "note": "Counter-ions that a name gives are not always drawn. Like-named read-outs stand apart in the source and are kept apart here.",
  "data": [
    {"smiles": "N[C@H]1C(O)O[C@H](COP(=O)(O)O)[C@@H](O)[C@@H]1O", "note": "(stereo partly drawn) [GA6P, glucosamine-6-phosphate]", "values": [
      {"measurement": "Toxicity to natural plant cells", "setting": "[1]", "result": "toxic to natural plant cells"}
    ]},
    {"smiles": "N[C@H]1C(O)O[C@H](CO)[C@@H](O)[C@@H]1O", "note": "(stereo partly drawn) [glucosamine, D-glucosamine, HCl]", "values": [
      {"measurement": "No of GUS-positive shoots", "setting": "[2]; sucrose 10 g/l, glucosamine 2.5 g/l, B5-salts 3.2 g/l", "result": 2},
      {"measurement": "No of GUS-positive shoots", "setting": "[2]; sucrose 20 g/l, glucosamine 2.5 g/l, B5-salts 2.4 g/l", "result": 1},
      {"measurement": "No of GUS-positive shoots", "setting": "[2]; sucrose 20 g/l, glucosamine 3.0 g/l, B5-salts 2.4 g/l", "result": 1},
      {"measurement": "Shoot formation on guar explants (%)", "setting": "[3]; Gamborg B5 salts in selection medium 1.6 g/l", "result": 6.2, "unit": "%"},
      {"measurement": "Shoot formation on guar explants (%)", "setting": "[3]; Gamborg B5 salts in selection medium 2.4 g/l", "result": 9.1, "unit": "%"},
      {"measurement": "Shoot formation on guar explants (%)", "setting": "[3]; Gamborg B5 salts in selection medium 3.2 g/l", "result": 17.4, "unit": "%"},
      {"measurement": "Effect of NH4NO3 content on toxicity of glucosamine", "setting": "[4]", "result": "lowering the content of NH4NO3 makes the glucosamine less toxic"},
      {"measurement": "Number of transformed areas per explant", "setting": "[4]; [6]", "result": 3.8},
      {"measurement": "Number of transgenic shoots", "setting": "[4]; [6]", "result": 1},
      {"measurement": "Transformation frequency (number transgenic shoots/started explants)", "setting": "[4]; [6]", "result": 2},
      {"measurement": "Number of transformed areas per explant", "setting": "[4]; [7]", "result": 0},
      {"measurement": "Number of transgenic shoots", "setting": "[4]; [7]", "result": 0},
      {"measurement": "Transformation frequency (number transgenic shoots/started explants)", "setting": "[4]; [7]", "result": 0},
      {"measurement": "Number of transformed areas per explant", "setting": "[4]; [8]", "result": 0},
      {"measurement": "Number of transgenic shoots", "setting": "[4]; [8]", "result": 0},
      {"measurement": "Transformation frequency (number transgenic shoots/started explants)", "setting": "[4]; [8]", "result": 0},
      {"measurement": "Number of transformed areas per explant", "setting": "[4]; [9]", "result": 0},
      {"measurement": "Number of transgenic shoots", "setting": "[4]; [9]", "result": 0},
      {"measurement": "Transformation frequency (number transgenic shoots/started explants)", "setting": "[4]; [9]", "result": 0},
      {"measurement": "Number of transformed areas per explant", "setting": "[4]; [10]", "result": 0},
      {"measurement": "Number of transgenic shoots", "setting": "[4]; [10]", "result": 0},
      {"measurement": "Transformation frequency (number transgenic shoots/started explants)", "setting": "[4]; [10]", "result": 0},
      {"measurement": "Number of transformed areas per explant", "setting": "[4]; glucosamine 2 g/l", "result": 0},
      {"measurement": "Transformation frequency (%) (Number transgenic shoots/started explants)", "setting": "[4]; glucosamine 2 g/l", "result": 0, "unit": "%"},
      {"measurement": "Number of transformed areas per explant", "setting": "[4]; [11]", "result": 0.025},
      {"measurement": "Number of transgenic shoots", "setting": "[4]; [11]", "result": 0},
      {"measurement": "Transformation frequency (%) (Number transgenic shoots/started explants)", "setting": "[4]; [11]", "result": 0, "unit": "%"},
      {"measurement": "Number of transgenic shoots", "setting": "[4]; glucosamine 2 g/l, NH4/NO3 1650 g/l", "result": 0},
      {"measurement": "Number of transformed areas per explant", "setting": "[4]; glucosamine 2.5 g/l", "result": 0},
      {"measurement": "Transformation frequency (%) (Number transgenic shoots/started explants)", "setting": "[4]; glucosamine 2.5 g/l", "result": 0, "unit": "%"},
      {"measurement": "Number of transformed areas per explant", "setting": "[4]; [12]", "result": 0},
      {"measurement": "Number of transgenic shoots", "setting": "[4]; [12]", "result": 0},
      {"measurement": "Transformation frequency (%) (Number transgenic shoots/started explants)", "setting": "[4]; [12]", "result": 0, "unit": "%"},
      {"measurement": "Number of transgenic shoots", "setting": "[4]; glucosamine 2.5 g/l, NH4/NO3 1650 g/l", "result": 0},
      {"measurement": "Number of transformed areas per explant", "setting": "[4]; glucosamine 3 g/l", "result": 0},
      {"measurement": "Transformation frequency (%) (Number transgenic shoots/started explants)", "setting": "[4]; glucosamine 3 g/l", "result": 0, "unit": "%"},
      {"measurement": "Number of transformed areas per explant", "setting": "[4]; [13]", "result": 0},
      {"measurement": "Number of transgenic shoots", "setting": "[4]; [13]", "result": 0},
      {"measurement": "Transformation frequency (%) (Number transgenic shoots/started explants)", "setting": "[4]; [13]", "result": 0, "unit": "%"},
      {"measurement": "Number of transgenic shoots", "setting": "[4]; glucosamine 3 g/l, NH4/NO3 1650 g/l", "result": 0}
    ]},
    {"smiles": "CC(=O)N[C@H]1C(O)O[C@H](COP(=O)(O)O)[C@@H](O)[C@@H]1O", "note": "(stereo partly drawn) [NAG6P, N-acetyl glucosamine 6-phosphate]", "values": [
      {"measurement": "Effect on the conversion of GA6P to F6P by glucosamine-6-phosphate deaminase", "setting": "[5]", "result": "positive effect (an allosteric effect)"}
    ]}
  ]
}
